Measurements taken from publication PMC10762177, “Novel betulin derivatives as multidrug reversal agents targeting P-glycoprotein” (Scientific Reports, 2024).
Where “and” joins values, the source holds several entries; their conditions need not be identical. Equal entries are not always repeated. Structures can show the parent of a compound that is named as a salt. Where two headings read alike, the source gives them in different places.

How the values were obtained:
K562 cells = experiment: MTT colorimetric assay, cytotoxicity on sensitive K562; format: cell-based; details: for IC50: Homo sapiens, MTT, 48 h; for toxicity: 50 μM, K562, MTT
Method: (§1) This colorimetric technique is based on the ability of viable cells to capture MTT and reduce it through the mitochondrial enzyme succinic dehydrogenase to its insoluble form, formazan crystals. […] After this time, the plate was centrifuged at 2000 rpm for 10 min, and 100 µL of DMSO was added to dissolve the formazan crystals formed. Absorbance (Abs) was read at a wavelength of 595 nm in an iMark microplate reader (Bio-Rad, USA).

P-gp = P-gp (Homo sapiens, UniProt P08183); experiment: Rhodamine 123 intracellular accumulation assay in K562/Dox (flow cytometry); details: for Rho123 accumulation / anti-P-gp activity / MEC (minimum effective concentration): K562/Dox; for Rho123 accumulation / anti-P-gp activity: highest concentrations tested (50 or 6.25 µM); for FAR (fluorescence activity ratio): Rho123, K562/Dox; for MEC (minimum effective concentration): Rho123 accumulation
K562/Dox cells = experiment: MTT colorimetric assay, cytotoxicity on resistant K562/Dox; format: cell-based; details: for IC50: Homo sapiens, K562, 48 h, read-out: IC50 K562/Dox; for toxicity: 50 μM
Method: as §1, with “crystals. The target compounds dissolved in DMSO (0.5% v/v as final concentration which was non-toxic to cells) at a maximum concentration of 50 µM were exposed to 5 × 10^4 cells distributed in a 96-well plate and incubated for 48 h.” for “crystals.”, “USA). The percentages of cytotoxicity were determined as compared to DMSO treated control cells, which were considered 100% viable as showing the same level of growth as the untreated cells.” for “USA).”

Chain of P-gp (P08183 whole entry): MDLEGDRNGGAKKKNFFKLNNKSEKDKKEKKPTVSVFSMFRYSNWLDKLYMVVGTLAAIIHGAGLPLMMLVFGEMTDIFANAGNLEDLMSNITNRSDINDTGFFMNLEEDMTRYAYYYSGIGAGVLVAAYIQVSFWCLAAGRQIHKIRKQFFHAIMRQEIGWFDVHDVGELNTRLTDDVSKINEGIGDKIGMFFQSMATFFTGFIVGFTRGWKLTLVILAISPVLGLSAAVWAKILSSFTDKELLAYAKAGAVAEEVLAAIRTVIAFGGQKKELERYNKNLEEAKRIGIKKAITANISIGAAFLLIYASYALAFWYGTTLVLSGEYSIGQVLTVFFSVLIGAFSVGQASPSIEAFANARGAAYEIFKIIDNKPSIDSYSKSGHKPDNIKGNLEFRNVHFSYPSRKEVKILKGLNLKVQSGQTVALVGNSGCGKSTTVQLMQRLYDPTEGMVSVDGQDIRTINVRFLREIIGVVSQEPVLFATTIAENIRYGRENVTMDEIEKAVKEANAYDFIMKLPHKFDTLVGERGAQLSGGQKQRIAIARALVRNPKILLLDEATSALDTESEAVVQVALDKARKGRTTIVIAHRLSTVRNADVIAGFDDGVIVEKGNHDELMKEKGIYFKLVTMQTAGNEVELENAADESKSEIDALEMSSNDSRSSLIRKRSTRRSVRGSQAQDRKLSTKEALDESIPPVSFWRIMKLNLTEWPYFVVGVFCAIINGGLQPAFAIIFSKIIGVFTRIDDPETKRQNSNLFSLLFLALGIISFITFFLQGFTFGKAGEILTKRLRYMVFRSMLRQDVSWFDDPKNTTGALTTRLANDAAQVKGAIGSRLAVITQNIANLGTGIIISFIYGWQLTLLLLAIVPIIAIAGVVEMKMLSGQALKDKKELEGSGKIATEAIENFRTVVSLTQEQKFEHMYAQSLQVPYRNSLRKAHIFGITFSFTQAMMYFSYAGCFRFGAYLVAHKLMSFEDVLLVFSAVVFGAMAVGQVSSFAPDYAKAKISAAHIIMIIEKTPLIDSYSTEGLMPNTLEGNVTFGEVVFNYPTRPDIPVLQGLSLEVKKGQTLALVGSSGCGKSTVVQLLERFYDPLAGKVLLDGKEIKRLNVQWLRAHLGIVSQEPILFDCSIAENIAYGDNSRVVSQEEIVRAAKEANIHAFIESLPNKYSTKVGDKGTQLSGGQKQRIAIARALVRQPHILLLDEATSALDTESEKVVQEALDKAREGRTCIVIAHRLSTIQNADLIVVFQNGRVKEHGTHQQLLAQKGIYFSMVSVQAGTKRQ

## C=C(C)[C@@H]1CC[C@]2(COC(=O)c3ccc(OC)cc3)CC[C@]3(C)[C@H](CC[C@@H]4[C@@]5(C)CC[C@H](O)C(C)(C)[C@@H]5CC[C@]43C)[C@@H]12 [Compound 3a]
K562 cells; K562, 48 h, K562
  IC50: > 50 µM
P-gp
  Rho123 accumulation / anti-P-gp activity: did not induce statistically significant Rho123 accumulation
  MEC (minimum effective concentration): > 50 µM
P-gp; 50 µM
  FAR (fluorescence activity ratio): 0.88 ± 0.02
K562/Dox cells; MTT, 48 h, K562/Dox
  IC50: > 50 µM

## C=C(C)[C@@H]1CC[C@]2(COC(=O)c3cc(OC)c(OC)c(OC)c3)CC[C@]3(C)[C@H](CC[C@@H]4[C@@]5(C)CC[C@H](O)C(C)(C)[C@@H]5CC[C@]43C)[C@@H]12 [Compound 3b]
K562 cells; K562, 48 h, K562
  IC50: > 50 µM
P-gp; 25 µM
  FAR (fluorescence activity ratio): 0.94 ± 0.03
P-gp; 50 µM
  FAR (fluorescence activity ratio): 1.06 ± 0.003
P-gp
  MEC (minimum effective concentration): 50 µM
K562/Dox cells; MTT, 48 h, K562/Dox
  IC50: > 50 µM

## C=C(C)[C@@H]1CC[C@]2(COC(=O)/C=C/c3ccc(OC)cc3OC)CC[C@]3(C)[C@H](CC[C@@H]4[C@@]5(C)CC[C@H](O)C(C)(C)[C@@H]5CC[C@]43C)[C@@H]12 [Compound 3c]
K562 cells; K562, 48 h, K562
  IC50: > 50 µM
P-gp
  Rho123 accumulation / anti-P-gp activity: did not induce statistically significant Rho123 accumulation
  MEC (minimum effective concentration): > 50 µM
P-gp; 50 µM
  FAR (fluorescence activity ratio): 0.74 ± 0.05
K562/Dox cells; MTT, 48 h, K562/Dox
  IC50: > 50 µM

## C=C(C)[C@@H]1CC[C@]2(COC(=O)/C=C/c3cc(OC)c(OC)c(OC)c3)CC[C@]3(C)[C@H](CC[C@@H]4[C@@]5(C)CC[C@H](O)C(C)(C)[C@@H]5CC[C@]43C)[C@@H]12 [Compound 3d]
K562 cells; K562, 48 h, K562
  IC50: > 50 µM
P-gp
  Rho123 accumulation / anti-P-gp activity: did not induce statistically significant Rho123 accumulation
  MEC (minimum effective concentration): > 50 µM
P-gp; 50 µM
  FAR (fluorescence activity ratio): 1.00 ± 0.06
K562/Dox cells; MTT, 48 h, K562/Dox
  IC50: > 50 µM

## C=C(C)[C@@H]1CC[C@]2(COC(=O)/C=C/c3cc(OC)c(OC)cc3OC)CC[C@]3(C)[C@H](CC[C@@H]4[C@@]5(C)CC[C@H](O)C(C)(C)[C@@H]5CC[C@]43C)[C@@H]12 [Compound 3e]
K562 cells; K562, 48 h, K562
  IC50: > 50 µM
P-gp
  Rho123 accumulation / anti-P-gp activity: did not induce statistically significant Rho123 accumulation
  MEC (minimum effective concentration): > 50 µM
P-gp; 50 µM
  FAR (fluorescence activity ratio): 0.78 ± 0.01
K562/Dox cells; MTT, 48 h, K562/Dox
  IC50: > 50 µM

## C=C(C)[C@@H]1CC[C@]2(C(=O)NCc3cc(OC)c(OC)c(OC)c3)CC[C@]3(C)[C@H](CC[C@@H]4[C@@]5(C)CC[C@H](O)C(C)(C)[C@@H]5CC[C@]43C)[C@@H]12 [Compound 4]
K562 cells
  toxicity: more than 55%
K562 cells; K562, 48 h, K562
  IC50: 19.7 ± 0.59 µM
P-gp; 12.50 µM
  FAR (fluorescence activity ratio): 1.04 ± 0.01
P-gp
  MEC (minimum effective concentration): 25 µM and 25.0 µM
P-gp; ratio of MEC values, Rho123
  fold less active against P-gp than carbamate 6d: 32
K562/Dox cells; K562/Dox, MTT
  toxicity: more than 55%
K562/Dox cells; MTT, 48 h, K562/Dox
  IC50: 34.4 ± 2.59 µM

## C=C(C)[C@@H]1CC[C@]2(COC(=O)Nc3cc(OC)c(OC)c(OC)c3)CC[C@]3(C)[C@H](CC[C@@H]4[C@@]5(C)CC[C@H](O)C(C)(C)[C@@H]5CC[C@]43C)[C@@H]12 [Compound 6a]
K562 cells; K562, 48 h, K562
  IC50: > 50 µM
P-gp; 0.78 µM
  FAR (fluorescence activity ratio): 0.98 ± 0.02
P-gp; 1.56 µM
  FAR (fluorescence activity ratio): 1.17 ± 0.02
P-gp; 3.12 µM
  FAR (fluorescence activity ratio): 1.12 ± 0.005
P-gp; 6.25 µM
  FAR (fluorescence activity ratio): 1.12 ± 0.02
P-gp; 12.50 µM
  FAR (fluorescence activity ratio): 1.20 ± 0.08
P-gp; 25 µM
  FAR (fluorescence activity ratio): 1.33 ± 0.11
P-gp; 50 µM
  FAR (fluorescence activity ratio): 1.62 ± 0.10
P-gp
  MEC (minimum effective concentration): 1.56 µM
K562/Dox cells; MTT, 48 h, K562/Dox
  IC50: > 50 µM

## C=C(C)[C@@H]1CC[C@]2(COC(=O)NCc3ccc(OC)cc3)CC[C@]3(C)[C@H](CC[C@@H]4[C@@]5(C)CC[C@H](O)C(C)(C)[C@@H]5CC[C@]43C)[C@@H]12 [Compound 6b]
K562 cells; K562, 48 h, K562
  IC50: > 50 µM
P-gp; 25 µM
  FAR (fluorescence activity ratio): 0.90 ± 0.11
P-gp; 50 µM
  FAR (fluorescence activity ratio): 1.60 ± 0.07
P-gp
  MEC (minimum effective concentration): 50 µM
K562/Dox cells; MTT, 48 h, K562/Dox
  IC50: > 50 µM

## C=C(C)[C@@H]1CC[C@]2(COC(=O)NCc3ccc(OC)c(OC)c3)CC[C@]3(C)[C@H](CC[C@@H]4[C@@]5(C)CC[C@H](O)C(C)(C)[C@@H]5CC[C@]43C)[C@@H]12 [Compound 6c]
K562 cells; K562, 48 h, K562
  IC50: > 50 µM
P-gp; 1.56 µM
  FAR (fluorescence activity ratio): 1.00 ± 0.02
P-gp; 3.12 µM
  FAR (fluorescence activity ratio): 1.13 ± 0.03
P-gp; 6.25 µM
  FAR (fluorescence activity ratio): 1.23 ± 0.01
P-gp; 12.50 µM
  FAR (fluorescence activity ratio): 1.40 ± 0.06
P-gp; 25 µM
  FAR (fluorescence activity ratio): 1.65 ± 0.11
P-gp; 50 µM
  FAR (fluorescence activity ratio): 1.97 ± 0.15
P-gp
  MEC (minimum effective concentration): 3.12 µM
K562/Dox cells; MTT, 48 h, K562/Dox
  IC50: > 50 µM

## C=C(C)[C@@H]1CC[C@]2(COC(=O)NCc3cc(OC)c(OC)c(OC)c3)CC[C@]3(C)[C@H](CC[C@@H]4[C@@]5(C)CC[C@H](O)C(C)(C)[C@@H]5CC[C@]43C)[C@@H]12 [Compound 6d]
K562 cells; K562, 48 h, K562
  IC50: > 50 µM
P-gp; 0.78 µM
  FAR (fluorescence activity ratio): 1.16 ± 0.03
P-gp; 1.56 µM
  FAR (fluorescence activity ratio): 1.27 ± 0.08
P-gp; 3.12 µM
  FAR (fluorescence activity ratio): 1.64 ± 0.16
P-gp; 6.25 µM
  FAR (fluorescence activity ratio): 1.88 ± 0.17
P-gp; 25 µM
  FAR (fluorescence activity ratio): 2.48 ± 0.29
P-gp; 50 µM
  FAR (fluorescence activity ratio): 2.80 ± 0.32
P-gp
  MEC (minimum effective concentration): 0.78 µM
K562/Dox cells; MTT, 48 h, K562/Dox
  IC50: > 50 µM

## C=C(C)[C@@H]1CC[C@]2(COC(=O)NCCc3ccc(OC)cc3)CC[C@]3(C)[C@H](CC[C@@H]4[C@@]5(C)CC[C@H](O)C(C)(C)[C@@H]5CC[C@]43C)[C@@H]12 [Compound 6e]
K562 cells; K562, 48 h, K562
  IC50: > 50 µM
P-gp; 25 µM
  FAR (fluorescence activity ratio): 1.04 ± 0.11
P-gp; 50 µM
  FAR (fluorescence activity ratio): 1.53 ± 0.09
P-gp
  MEC (minimum effective concentration): 50 µM and 50.0 µM
K562/Dox cells; MTT, 48 h, K562/Dox
  IC50: > 50 µM

## C=C(C)[C@@H]1CC[C@]2(COC(=O)NCCc3ccc(OC)c(OC)c3)CC[C@]3(C)[C@H](CC[C@@H]4[C@@]5(C)CC[C@H](O)C(C)(C)[C@@H]5CC[C@]43C)[C@@H]12 [Compound 6f]
K562 cells; K562, 48 h, K562
  IC50: > 50 µM
P-gp; 0.78 µM
  FAR (fluorescence activity ratio): 1.02 ± 0.02
P-gp; 1.56 µM
  FAR (fluorescence activity ratio): 1.13 ± 0.04
P-gp; 3.12 µM
  FAR (fluorescence activity ratio): 1.25 ± 0.02
P-gp; 6.25 µM
  FAR (fluorescence activity ratio): 1.45 ± 0.16
P-gp; 12.50 µM
  FAR (fluorescence activity ratio): 1.73 ± 0.18
P-gp; 25 µM
  FAR (fluorescence activity ratio): 1.95 ± 0.25
P-gp; 50 µM
  FAR (fluorescence activity ratio): 2.27 ± 0.31
P-gp
  MEC (minimum effective concentration): 1.56 µM
K562/Dox cells; MTT, 48 h, K562/Dox
  IC50: > 50 µM

## C=C(C)[C@@H]1CC[C@]2(COC(=O)N3CCNCC3)CC[C@]3(C)[C@H](CC[C@@H]4[C@@]5(C)CC[C@H](O)C(C)(C)[C@@H]5CC[C@]43C)[C@@H]12 [Compound 6h]
K562 cells
  toxicity: more than 55%
K562 cells; K562, 48 h, K562
  IC50: 4.6 ± 0.24 µM
P-gp
  Rho123 accumulation / anti-P-gp activity: did not induce statistically significant Rho123 accumulation
P-gp; 6.25 µM
  FAR (fluorescence activity ratio): 1.06 ± 0.08
K562/Dox cells; K562/Dox, MTT
  toxicity: more than 55%
K562/Dox cells; MTT, 48 h, K562/Dox
  IC50: 12.5 ± 0.5 µM

## COc1cccc2c1C(=O)c1c(O)c3c(c(O)c1C2=O)C[C@@](O)(C(=O)CO)C[C@@H]3O[C@H]1C[C@H](N)[C@H](O)[C@H](C)O1 [Doxorubicin, Doxorubicin hydrochloride, reference compound]
K562 cells; K562, 48 h, K562
  IC50: 2.61 ± 0.7 µM
K562/Dox cells; MTT, 48 h, K562/Dox
  IC50: 84.2 ± 7.08 µM
K562/Dox cells; ratio of IC50 values, MTT
  fold resistance of K562/Dox versus K562: 32.3

## COc1ccc(CCN(C)CCCC(C#N)(c2ccc(OC)c(OC)c2)C(C)C)cc1OC (stereo not drawn) [Verapamil, Verapamil hydrochloride, reference compound]
K562 cells; 50 μM (highest concentration assayed), K562
  inhibition on proliferation / toxicity: not toxic
K562 cells; K562
  IC50: > 50 µM
K562/Dox cells; 50 μM (highest concentration assayed), K562/Dox
  inhibition on proliferation / toxicity: not toxic
K562/Dox cells
  IC50: > 50 µM
